Test results reported in US20040185094A1, “Pharmaceutical” (priority 2000, published 2004).
“Also recorded” adds a separate entry of the source.

Tests used:
rabbit corpus cavernosum [1] = assay: Direct relaxant effect of EBIO on contracted corpus cavernosum strips in organ baths; format: cell-based
rabbit corpus cavernosum [2] = assay: Mechanism of EBIO-induced relaxation (L-NOARG incubation, endothelium removal); format: cell-based; conditions: PE (10 μM) contracted
rabbit corpus cavernosum [3] = assay: Effect of EBIO on cGMP-mediated (SNP-induced) relaxation; format: cell-based; conditions: EBIO 50 μM; SNP dose response
rabbit corpus cavernosum [4] = assay: Effect on electrical field stimulation (EFS)-induced relaxation; format: cell-based
Procedure: Male New Zealand White rabbits (2.0-3.0 Kg) were killed by cervical dislocation. The abdominal cavity was opened and the penis excised, starting at the base of the organ at the pelvic bones. The corpus cavernosum was carefully dissected free from the surrounding tunica albuginea—2 tissue strips, approximately 10 mm×3 mm×2 mm in size, were obtained from each penis. The dissection was carried out in Krebs Ringer Solution. Tissues were used on the day of harvest.
The strips of corpus cavernosum and were mounted with surgical suture in 5 ml Wesley & Co. organ baths, and immersed in Kreb's solution maintained at 37° C. and aerated with 5% CO2/95% O2 to attain pH 7.4. The suture was connected to a force displacement transducer (Maywood Instruments Ltd.) and changes in isometric tension were recorded on the DART in vitro computer package. The tissues were put under an initial resting tension of 1.5 g and allowed to equilibrate for 1 hour. During equilibration, the tissues were rinsed at 5 ml/min. The approximate tissue tension after equilibration was 1 g. The tissues were then sensitised to contraction with phenylephrine (PE) (10 μM) and KCl (120 mM), and relaxation with sodium nitroprusside (SNP) (100 μM).
Tissues were bathed in “normal” Kreb's containing 5 μM guanethidine and 1 μM atropine, to block NA release and receptors respectively. EFS was delivered by a MS3 stimulator connected to 2 platinum electrodes which were placed at the top and bottom of the organ chambers. EFS parameters are as follows: Voltage=45-65V, Frequency=2-32 Hz, Pulse Width=0.2 ms, Train Duration=10 s. […] An EFS curve involved stimulating PE-contracted tissues at 2 Hz, 4 Hz, 8 Hz, 16 Hz and 32 Hz, and the degree of relaxation was measured by taking the minimum reading from the maximum reading obtained over a 30 s period. […]
For each dose response curve, the relaxation responses are expressed as a percentage of the PE-induced contraction. […] For EFS response curves, the degree of relaxation was expressed as a percentage of the PE-induced contraction. […]

rabbit aorta = assay: Selectivity of EBIO for corpus cavernosum over cardiovascular tissue (isolated aorta); format: cell-based; conditions: in vitro
Procedure: PE (1 μM) or 80 mM K^+ contracted rabbit aorta sections were subjected to half-log unit cumulative additions of EBIO (10 nM-1 mM) with approximately 10 minute intervals between each addition.
For each dose response curve, the relaxation responses are expressed as a percentage of the PE-induced contraction. The mean values±s.e. mean are then plotted against log[drug] concentration. Sigmoidal curves were fitted to the data using Origin curve fitting computer package. For the purpose of curve fitting, the minimum relaxation response is constrained to 0% and the maximum relaxation response is allowed to free fit. For EFS response curves, the degree of relaxation was expressed as a percentage of the PE-induced contraction. These values were then plotted against the frequency of stimulation.

Compound	IC20 (rabbit corpus cavernosum [1]; Oryctolagus cuniculus, relaxation of rabbit corpus cavernosum) [µM]	relaxation of PE-contracted rabbit corpus cavernosum (rabbit corpus cavernosum [1]; PE (10 μM) contracted, EBIO 10 nM-1 mM cumulative, in vitro)	concentrations at which basal tone is suppressed (rabbit corpus cavernosum [1]; rabbit corpus cavernosum basal tone) [µM]	EBIO-induced relaxation in the presence of L-NOARG (NOS inhibitor) (rabbit corpus cavernosum [2]; L-NOARG)	EBIO-induced relaxation in endothelium deprived corpus cavernosum (rabbit corpus cavernosum [2]; endothelium removed)	effect on SNP-induced relaxation of PE-contracted corpus cavernosum (rabbit corpus cavernosum [3])	effect on EFS-induced relaxation of PE-contracted corpus cavernosum (rabbit corpus cavernosum [4]; EBIO 50 μM, 2-32 Hz)	concentrations at which a relaxant effect on rabbit aorta occurs (rabbit aorta) [µM]	relaxant effect on rabbit aorta (rabbit aorta; PE (1 μM) or 80 mM K+ contracted, concentrations up to 100 μM)	effect on blood pressure in vivo (Blood pressure in vivo)	effect of ChTX on EBIO-induced potentiation of EFS-induced relaxation (rabbit corpus cavernosum [4]; ChTX 100 nM with EBIO 50 μM)	attenuation of endogenous NO-mediated (EFS-induced) relaxation (rabbit corpus cavernosum [4]; ChTX 100 nM, across the frequency range)
CCn1c(=O)[nH]c2ccccc21 [EBIO, 1-ethyl-2-benzimidazolinone]	~50	concentration-dependent relaxation; also recorded: concentration dependent relaxation	≥ 10	still observed	still observed; also recorded: not affected	potentiates; also recorded: enhanced	greatly potentiates; also recorded: enhanced	≥ 100	no relaxant effect	no effect		
charybdotoxin [ChTX]											caused a reduction; also recorded: sensitive	up to 30%
